Measured values published in patent US12611432B2 (priority 2017, dated 2026).

How the values were obtained:
[1] = system: PTEN KO orthotopic tumors; assay: FTY720 blockade of T cell recruitment in PTEN KO tumor-bearing mice; assay type: in vivo
Experimental: Survival endpoint was defined by the appearance of hemorrhagic abdominal ascites and/or decreased grooming, ambulation, or piloerection. Volume of all tumor experiments was calculated using caliper measurements at π/6×L×W×H, where L is length of longest axis of the tumor, and W and H are the perpendicular width and height, respectively.
For all in vivo experiments, CP1 was administered intra-urethrally on day 8 post-tumor injection. […]
The Ability of CP1 to Potentiate PD-1 Blockade is Partially Dependent on Increased TIL Recruitment To determine if CP1's ability to recruit lymphocytes into the tumor is necessary for its proven synergy with PD-1 blockade, fingolimod (FTY720), a sphingosine-1 phosphate mimetic that blocks egress of T cells from the lymph nodes into peripheral tissues, was administered. PTEN KO orthotopic tumor-bearing mice were treated with CP1 and anti-PD-1, with the addition of FTY720 administration beginning immediately before CP1 administration, to specifically block CP1-induced T cell infiltration into the tumor without inhibiting the quantity or function of the baseline TILs present in these tumors.

Myc-CaP cells = assay type: cell-based, murine; conditions: 1 μM mitoxantrone, live or heat killed CP1 MOI 10, 24 or 72 hours
Experimental: (a) LDH level, as a measure of cell death, from CP1 and Myc-CaP co-culture, performed in triplicates. (b-i) Myc-CaP cell were co-cultured with Mx, CP1(MOI 1), or MG1655 (MOI 1) (b, d, g) in normal media or (c, e, f, h, i) with gentamicin (+ G) added after 2 hours. (b, c) ICD was measured via HMGB1 (ELISA, 72 hours), ATP (luminescence assay, 72 hours), and calreticulin (flow cytometry, 24 or 72 hours), performed in biological triplicates, technical duplicates. (d-f) Caspase 3/7 activity (luminescence assay) was measured at (d, e) 6 hours or (f) 24 hours, (d) normalized to cell count (MTT assay), performed in sextuplicates. (g, h) Early stage apoptosis (Annexin V^+PI^-) and late stage apoptosis (Annexin V+PI+) were determined by flow cytometry after 24 hours, performed in triplicates. (i) Western blot analysis of phosphorylated and total MLKL, RIP1, RIP3, full length and cleaved PARP, and β-actin after 24 hours, performed in triplicates.
For indicated in vitro assays, CP1 was heat killed at 70° C. for 45 minutes. […] Additionally, supernatant was assessed for lactate dehydrogenase (LDH) levels as a measure of cell death (CytoTox 96 Non-Radioactive Cytotoxicity Assay, Promega). […] Cells counts were taken at the times of supernatant collection, which were frozen at −80° C. until use for quantifying secreted ATP (Bioluminescent Assay Kit, Sigma) and HMGB1 (ELISA, Tecan Trading).

[2] = system: castration-resistant prostate cancer (CRPC); conditions: monotherapy, patients with CRPC; cited from earlier work

Row | Compound | overall survival (OS) [2] | other results
1 | CCCCCCCCc1ccc(CCC(N)(CO)CO)cc1 [FTY720, Fingolimod] | – | tumor volume, mean [1]: 1394 mm^3
2 | O=C1c2c(O)ccc(O)c2C(=O)c2c(NCCNCCO)ccc(NCCNCCO)c21 [mitoxantrone] | – | ICD markers: secreted HMGB1, secreted ATP, cell surface calreticulin (Myc-CaP cells): elevated
3 | ipilimumab | no improvement in overall survival (OS) | –
4 | nivolumab | no improvement in overall survival (OS) | –
